Reference: patent US11731944B2, “SARS-CoV-2 inhibitors for treating coronavirus infections” (priority 2021, dated 2023)
Where two headings read alike, the source gives them in different places.

Columns and labels:
SARS-CoV-2 MPRO = SARS-CoV-2 MPRO (Severe acute respiratory syndrome coronavirus 2 (2019-nCoV) (SARS-CoV-2), UniProt P0DTD1); experiment: SARS-CoV-2 Mpro enzymatic assay (FRET substrate cleavage); type: biochemical; details: 30 min pre-incubation at RT, 60 min at 30° C., 10 doses from 25 μM
SARS-CoV-2 = experiment: In vitro antiviral cell-based assay (live SARS-CoV-2), plaque reduction assay in VeroE6 cells; details: Severe acute respiratory syndrome coronavirus 2, Vero C1008, footnote key printed as IC50 (nM)
[1] = C-His6-tagged SARS-CoV-2 MPRO 25 nM, read-out: M pro IC50
[2] = M pro IC50, C-His6-tagged SARS-CoV-2 MPRO 25 nM

## C[C@](C(=O)NC1CCC(F)(F)CC1)(c1cncnc1)N(C(=O)[C@H](F)Cl)c1ccc(-c2cncs2)cc1 (single isomer, unassigned) [Example 1a]
SARS-CoV-2 MPRO; [1]
  IC50: < 100 nM
SARS-CoV-2
  EC50: 100 to 1000 nM

## C[C@@](C(=O)NC1CCOCC1)(c1cncc(F)c1)N(C(=O)[C@H](F)Cl)c1ccc(OC(F)(F)Cl)cc1 [Example 98b]
SARS-CoV-2 MPRO; [1]
  IC50: 1000 to 10000 nM

## C[C@](C(=O)NC1CCC(F)(F)CC1)(c1cncc(F)c1)N(C(=O)[C@H](F)Cl)c1ccc(OC(F)(F)Cl)cc1 [Example 99a]
SARS-CoV-2 MPRO; [1]
  IC50: < 100 nM

## C[C@@](C(=O)NC1CCC(F)(F)CC1)(c1cncc(F)c1)N(C(=O)[C@H](F)Cl)c1ccc(OC(F)(F)Cl)cc1 [Example 99b]
SARS-CoV-2 MPRO; [1]
  IC50: 1000 to 10000 nM

## C[C@](C(=O)NC1CCC(F)(F)CC1)(c1cncnc1)N(C(=O)[C@H](F)Cl)c1ccc(-c2nccs2)cc1 [Example 100a]
SARS-CoV-2 MPRO; [1]
  IC50: < 100 nM

## C[C@@](C(=O)NC1CCC(F)(F)CC1)(c1cncnc1)N(C(=O)[C@H](F)Cl)c1ccc(-c2nccs2)cc1 [Example 100b]
SARS-CoV-2 MPRO; [1]
  IC50: 100 to 1000 nM

## C[C@](C(=O)NC1CCOCC1)(c1cncnc1)N(C(=O)[C@H](F)Cl)c1ccc(-c2nccs2)cc1 [Example 101a]
SARS-CoV-2 MPRO; [1]
  IC50: < 100 nM

## C[C@](C(=O)NC1CCC(F)(F)CC1)(c1cncc(F)c1)N(C(=O)[C@H](F)Cl)c1ccc(-c2nccs2)cc1 [Example 102a]
SARS-CoV-2 MPRO; [1]
  IC50: < 100 nM

## C[C@@](C(=O)NC1CCC(F)(F)CC1)(c1cncc(F)c1)N(C(=O)[C@H](F)Cl)c1ccc(-c2nccs2)cc1 [Example 102b]
SARS-CoV-2 MPRO; [1]
  IC50: 100 to 1000 nM

## C[C@](C(=O)NC1CCOCC1)(c1cncc(F)c1)N(C(=O)[C@H](F)Cl)c1ccc(-c2nccs2)cc1 [Example 103a]
SARS-CoV-2 MPRO; [1]
  IC50: < 100 nM

## C[C@@](C(=O)NC1CCOCC1)(c1cncc(F)c1)N(C(=O)[C@H](F)Cl)c1ccc(-c2nccs2)cc1 [Example 103b]
SARS-CoV-2 MPRO; [1]
  IC50: > 10000 nM

## C[C@](C(=O)NC1CCC(F)(F)CC1)(c1cccnc1)N(C(=O)[C@H](F)Cl)c1ccc(SC(F)(F)F)cc1 [Example 104a]
SARS-CoV-2 MPRO; [1]
  IC50: < 100 nM

## C[C@@](C(=O)NC1CCC(F)(F)CC1)(c1cccnc1)N(C(=O)[C@H](F)Cl)c1ccc(SC(F)(F)F)cc1 [Example 104b]
SARS-CoV-2 MPRO; [1]
  IC50: 1000 to 10000 nM

## C[C@](C(=O)NC1CCOCC1)(c1cccnc1)N(C(=O)[C@H](F)Cl)c1ccc(SC(F)(F)F)cc1 [Example 105a]
SARS-CoV-2 MPRO; [1]
  IC50: < 100 nM

## C[C@@](C(=O)NC1CCOCC1)(c1cccnc1)N(C(=O)[C@H](F)Cl)c1ccc(SC(F)(F)F)cc1 [Example 105b]
SARS-CoV-2 MPRO; [1]
  IC50: > 10000 nM

## C[C@](C(=O)NC1CCC2(CC1)COC2)(c1cncnc1)N(C(=O)[C@H](F)Cl)c1ccc(OC(F)(F)F)cc1 [Example 107a]
SARS-CoV-2 MPRO; [1]
  IC50: < 100 nM

## C[C@](C(=O)NC1CCOCC1)(c1cncnc1)N(C(=O)[C@H](F)Cl)c1ccc(C(F)(F)C(F)(F)F)cc1 [Example 108a]
SARS-CoV-2 MPRO; [1]
  IC50: 100 to 1000 nM

## C[C@@](C(=O)NC1CCOCC1)(c1cncnc1)N(C(=O)[C@H](F)Cl)c1ccc(C(F)(F)C(F)(F)F)cc1 [Example 108b]
SARS-CoV-2 MPRO; [1]
  IC50: > 10000 nM

## C[C@](C(=O)N[C@@H]1CC[C@H](NC(=O)C(F)(F)F)C1)(c1cncc(F)c1)N(C(=O)[C@H](F)Cl)c1ccc(OC(F)(F)F)cc1 [Example 109a]
SARS-CoV-2 MPRO; [2]
  IC50: < 100 nM

## C[C@@](C(=O)N[C@@H]1CC[C@H](NC(=O)C(F)(F)F)C1)(c1cncc(F)c1)N(C(=O)[C@H](F)Cl)c1ccc(OC(F)(F)F)cc1 [Example 109b]
SARS-CoV-2 MPRO; [2]
  IC50: 1000 to 10000 nM

## C[C@](C(=O)Nc1ccc(Cl)cc1F)(c1cncnc1)N(C(=O)[C@H](F)Cl)c1ccc(OC(F)(F)F)cc1 [Example 110a]
SARS-CoV-2 MPRO; [1]
  IC50: < 100 nM

## C[C@@](C(=O)Nc1ccc(Cl)cc1F)(c1cncnc1)N(C(=O)[C@H](F)Cl)c1ccc(OC(F)(F)F)cc1 [Example 110b]
SARS-CoV-2 MPRO; [1]
  IC50: 1000 to 10000 nM

## C[C@](C(=O)NC1CCOCC1)(c1cccnc1)N(C(=O)[C@H](F)Cl)c1ccc(OC(F)(F)Cl)cc1 [Example 111a]
SARS-CoV-2 MPRO; [1]
  IC50: < 100 nM

## C[C@@](C(=O)NC1CCOCC1)(c1cccnc1)N(C(=O)[C@H](F)Cl)c1ccc(OC(F)(F)Cl)cc1 [Example 111b]
SARS-CoV-2 MPRO; [1]
  IC50: > 10000 nM

## C[C@](C(=O)NC1CCC(F)(F)CC1)(c1cncnc1)N(C(=O)[C@H](F)Cl)c1cccc(OC(F)(F)F)c1 [Example 112a]
SARS-CoV-2 MPRO; [1]
  IC50: 100 to 1000 nM

## C[C@@](C(=O)NC1CCC(F)(F)CC1)(c1cncnc1)N(C(=O)[C@H](F)Cl)c1cccc(OC(F)(F)F)c1 [Example 112b]
SARS-CoV-2 MPRO; [1]
  IC50: > 10000 nM

## C[C@](C(=O)NC1CCC(F)(F)CC1)(c1cncnc1)N(C(=O)[C@H](F)Cl)c1ccc2c(c1)OC(F)(F)O2 [Example 113a]
SARS-CoV-2 MPRO; [1]
  IC50: < 100 nM

## C[C@@](C(=O)NC1CCC(F)(F)CC1)(c1cncnc1)N(C(=O)[C@H](F)Cl)c1ccc2c(c1)OC(F)(F)O2 [Example 113b]
SARS-CoV-2 MPRO; [1]
  IC50: > 10000 nM

## C[C@](C(=O)NC1CCOCC1)(c1cncnc1)N(C(=O)C(Cl)Cl)c1ccc(OC(F)(F)Cl)cc1 [Example 115a]
SARS-CoV-2 MPRO; [1]
  IC50: < 100 nM

## C[C@@](C(=O)NC1CCOCC1)(c1cncnc1)N(C(=O)C(Cl)Cl)c1ccc(OC(F)(F)Cl)cc1 [Example 115b]
SARS-CoV-2 MPRO; [1]
  IC50: 1000 to 10000 nM
